PMC3923778 (PLoS Currents, 2014)
Where two headings read alike, the source gives them in different places.

Assays:
[1] = Pharmacokinetic analysis in mice; assay type: in vivo, mouse; settings: for half-life: read-out: Half-life (t1/2) (converted); for Tmax: read-out: Observed Tmax
Experimental: All PK studies were conducted at Charles River Laboratories (CRL), MA, USA. CRL is fully accredited by the Association for Assessment and Accreditation of Laboratory Animal Care International (AAALAC), and is registered with the United States Department of Agriculture (USDA). All procedures involving animals were conducted humanely and were performed by trained and experienced personnel. The individual study protocols were reviewed and approved by the IACUC of CRL. A total of 48 male C57BL/6NCRL mice were used. Animals were acclimated to the study room environment for 5 days prior to dose administration. Mice were individually housed in micro isolator cages, and were kept on a 12/12 hour light/dark cycle except when interrupted for study procedures. Mice were fed LabDiet Certified Rodent Diet 5002 food ad libitum, except during fasting prior to dose administration, and had access to water ad libitum. […] For the iv doses, the compound was formulated at 1 mg/mL as a dose solution in 2% […] (NMP), 14% Propylene Glycol (PG), 14% Solutol HS–15, 70% 50mM Citrate, pH 4.5 , by volume. For the po dose, the compound was formulated at 1 mg/mL as a solution in 30% PG, 20% Solutol HS–15, 50% 50mM Citrate, pH 4.5, by volume. Aliquots (25 μL) of samples, plasma, and tissue blanks (containing internal standard only), plasma and tissue double blanks (without internal standard), control blanks (solvent only), diluted dose (dilute in plasma from the study species prior to extraction) and matrix calibration standards were dispensed into 96-well plates. Extracting solution with internal standard (100 μL) was added to all samples except matrix double blanks and solvent blanks. Extracting solution without internal standard (100 μL) was added to matrix double blanks. Samples were vortexed and centrifuged for 5 minutes, and the supernatants were transferred to a new plate. An aliquot (50 μL) of Milli-Q water was added to the samples, which were covered and vortexed for 5 minutes. […] Reserpine was used as an internal standard in the LC-MS/MS assay. Mice were divided into four groups of 3 animals each. Two blood samples were collected from each mouse following dosing; the second collection was a terminal sample and brains were also collected at that time as follows: Group 1 at 0.083 and 0.5 hr, Group 2 at 0.25 and 2 hr, Group 3 at 1 and 8 hr and Group 4 at 4 and 24 hr., and brain tissue time points at 0.5, 2, 8 and 24 hr. Non-compartmental pharmacokinetic analyses of the plasma concentration time course were performed using WinNonlin, version 5.2 (Pharsight Corp., Mountain View, California).

[2] = test system: R6/2 mice; test: Cued Two-Choice Swim Test; assay type: in vivo, mouse; settings: for Cued 2-CST Reversal, Correct Choice: p vs Vehicle-treated R6/2 mice / Cued 2-CST Acquisition, % of Mice Reaching Criterion: p vs Vehicle-treated R6/2 mice: BID; for Cued 2-CST Reversal, Correct Choice: p vs Vehicle-treated R6/2 mice: ANOVA; for Cued 2-CST Acquisition, % of Mice Reaching Criterion: p vs Vehicle-treated R6/2 mice: at 9 Weeks, Fisher's exact test
Experimental: The cued two-choice swim test was performed at 9 weeks of age. Testing was conducted under low light, white light conditions. The mice were taught to swim to (acquisition), or away from (reversal), a light positioned over the escape platform. Animals were placed within a rectangular tank (76 cm x 30 cm x 30 cm) filled with water maintained at 25°C ± 1°C. The water was rendered opaque by the addition of non-toxic white paint. The escape platform was located 0.5 cm below the surface of the water at one end of the tank. A light source with a 25W bulb (white light), oriented toward the water, was clipped to one side of the tank above the escape platform (7 cm in diameter with the borders slanted and roughened to help the rodents climb to it). Under these conditions, the light intensity is measured as 200 lux on the illuminated side of the tank, and 3 lux on the dark side of the tank. The platform was located on the lit side of the arena across acquisition trials, although the location of the lit side within the room relative to the mouse’s entry point was varied. The location of the bulb and platform was different on different trials for the same mouse. On each trial, mice were placed into the middle of the tank and allowed to swim for up to 60 sec, or until they found the platform. […] During all acquisition days, mice were given 8 trials per day (4 blocks of 2 trials, separated by an interblock interval of 20-30 minutes). Training continued in this way until each mouse performed at 75% correct choices for 2 consecutive days; upon reaching this criterion for successful acquisition of the task, mice were placed into the reversal phase on an individual basis. During reversal training, (4 blocks of 2 trials per day), the platform was placed on the dark side of the tank. On each trial during testing days, the latency to reach the platform was recorded (60 seconds if the platform was not reached) and the trial was scored as either “correct”, “incorrect” or “no choice”. The maximum number of days of acquisition was 12 days. All mice went from acquisition into the reversal phase and the experiment was stopped when 2 consecutive days of 75% criterion was reached or after a maximum of 7 days of reversal testing. A correct choice was scored if the animal turned in the direction of the platform and successfully mounted the platform. An incorrect choice was scored if the animal swam in the direction opposite the platform. […] To make a choice, a mouse had to swim within 20 cm of either end of the tank.
All values are presented as mean ± Standard Error of Mean (SEM), and differences are considered to be statistically significant at the p < 0.05 level. Statistical analysis was performed using StatsDirect statistical software. Differences between group means were analyzed by 1-way-ANOVA followed by Dunnett’s test (comparison to the control (=vehicle treated TG mice) group). The acquisition of the Cued two-choice swim test was analyzed using Fisher’s exact test.

[3] = male, C57BL/6NCRL, mouse, 5 mg/kg, Brain, IV 5.0 (mg eq./kg)
[4] = male, C57BL/6NCRL, mouse, 5 mg/kg, Plasma, IV 5.0 (mg eq./kg)

## CN1C(=O)c2nc(Cc3ccc(C(F)(F)F)cc3)[nH]c2N2C1=N[C@H]1CCC[C@H]12 [SCH-51866, (+)-cis-5,6a,7,8,9,9a-hexahydro-2-[4-[trifluro-methyl]phenylmethyl]-5-methyl-cylopent[4,5]imidazo [2,1-b]purin-4(3H)one]
[1]; after oral administration
  brain concentration at Tmax exceeds the biochemical IC50 for PDE1: ~ 7 fold
[1]; following dosing
  time through which concentrations in brain were measurable for all animals: 8 h
[1]; [3]
  AUC(0-inf): 8.23 µM·h
  AUC(0-t): 8.18 µM·h
  half-life: 1.08 h
[1]; male, C57BL/6NCRL, mouse, 5 mg/kg, Brain, IV 5.0 (mg eq./kg), read-out: Observed Cmax
  Cmax: 3.56 µM
[1]; [4]
  AUC(0-inf): 7.35 µM·h
  AUC(0-t): 7.31 µM·h
  half-life: 3.87 h
[1]; male, C57BL/6NCRL, mouse, 5 mg/kg, Plasma, IV 5.0 (mg eq./kg), read-out: Mean Residence Time (MRT)
  MRT: 2.57 h
[1]; male, C57BL/6NCRL, mouse, 5 mg/kg, Plasma, IV 5.0 (mg eq./kg), read-out: Plasma Clearance (CLp) (converted)
  clearance: 1.75 L/h/kg
[1]; male, C57BL/6NCRL, mouse, 5 mg/kg, Plasma, IV 5.0 (mg eq./kg), read-out: Volume of Distribution at Steady State (Vdss)
  Vd: 4.48 L/kg
[1]; male, C57BL/6NCRL, mouse, 10 mg/kg, Brain, PO 10.0 (mg eq./kg)
  AUC(0-t): 2.2 µM·h
[1]; male, C57BL/6NCRL, mouse, 10 mg/kg, Brain, PO 10.0 (mg eq./kg), read-out: Observed Cmax
  Cmax: 0.475 µM
[1]; male, C57BL/6NCRL, mouse, brain, iv, 5 mg/kg, Brain, IV 5.0 (mg eq./kg)
  Tmax: 0.5 h
[1]; male, C57BL/6NCRL, mouse, brain, oral, 10 mg eq./kg, mice, read-out: Brain-to-plasma concentration ratios
  Kp: 0.1 to 0.4
[1]; male, C57BL/6NCRL, mouse, brain, po, 10 mg/kg, Brain, PO 10.0 (mg eq./kg)
  Tmax: 2 h
[1]; male, C57BL/6NCRL, mouse, plasma, 10 mg/kg po in mice, read-out: plasma Cmax exposure
  Cmax: 2.4 µM
[2]; R6/2 mice, 9 weeks of age
  Cued Two-Choice Swim Test: learning phase, reversal learning, latency to make the choice, effect in words: did not improve any of these parameters
[2]; Test Day 1, 10 mg/kg p.o.
  Cued 2-CST Reversal, Correct Choice: p vs Vehicle-treated R6/2 mice: ANOVA: p=0.117
[2]; Test Day 1, 30 mg/kg p.o.
  Cued 2-CST Reversal, Correct Choice: p vs Vehicle-treated R6/2 mice: ANOVA: p=0.117
[2]; Test Day 2, 10 mg/kg p.o.
  Cued 2-CST Reversal, Correct Choice: p vs Vehicle-treated R6/2 mice: ANOVA: p=0.311
  Cued 2-CST Acquisition, % of Mice Reaching Criterion: p vs Vehicle-treated R6/2 mice: p>0.999
[2]; Test Day 2, 30 mg/kg p.o.
  Cued 2-CST Reversal, Correct Choice: p vs Vehicle-treated R6/2 mice: ANOVA: p=0.311
  Cued 2-CST Acquisition, % of Mice Reaching Criterion: p vs Vehicle-treated R6/2 mice: p=0.487
[2]; Test Day 3, 10 mg/kg p.o.
  Cued 2-CST Reversal, Correct Choice: p vs Vehicle-treated R6/2 mice: ANOVA: p=0.573
  Cued 2-CST Acquisition, % of Mice Reaching Criterion: p vs Vehicle-treated R6/2 mice: p>0.999
[2]; Test Day 3, 30 mg/kg p.o.
  Cued 2-CST Reversal, Correct Choice: p vs Vehicle-treated R6/2 mice: ANOVA: p=0.573
  Cued 2-CST Acquisition, % of Mice Reaching Criterion: p vs Vehicle-treated R6/2 mice: p>0.999
[2]; Test Day 4, 10 mg/kg p.o.
  Cued 2-CST Reversal, Correct Choice: p vs Vehicle-treated R6/2 mice: ANOVA: p=0.206
  Cued 2-CST Acquisition, % of Mice Reaching Criterion: p vs Vehicle-treated R6/2 mice: p>0.999
[2]; Test Day 4, 30 mg/kg p.o.
  Cued 2-CST Reversal, Correct Choice: p vs Vehicle-treated R6/2 mice: ANOVA: p=0.206
  Cued 2-CST Acquisition, % of Mice Reaching Criterion: p vs Vehicle-treated R6/2 mice: p>0.999
[2]; Test Day 5, 10 mg/kg p.o.
  Cued 2-CST Reversal, Correct Choice: p vs Vehicle-treated R6/2 mice: ANOVA: p=0.057
  Cued 2-CST Acquisition, % of Mice Reaching Criterion: p vs Vehicle-treated R6/2 mice: p>0.999
[2]; Test Day 5, 30 mg/kg p.o.
  Cued 2-CST Reversal, Correct Choice: p vs Vehicle-treated R6/2 mice: ANOVA: p=0.057
  Cued 2-CST Acquisition, % of Mice Reaching Criterion: p vs Vehicle-treated R6/2 mice: p>0.999
[2]; Test Day 6, 10 mg/kg p.o.
  Cued 2-CST Reversal, Correct Choice: p vs Vehicle-treated R6/2 mice: ANOVA: p=0.140
  Cued 2-CST Acquisition, % of Mice Reaching Criterion: p vs Vehicle-treated R6/2 mice: p=0.313
[2]; Test Day 6, 30 mg/kg p.o.
  Cued 2-CST Reversal, Correct Choice: p vs Vehicle-treated R6/2 mice: ANOVA: p=0.140
  Cued 2-CST Acquisition, % of Mice Reaching Criterion: p vs Vehicle-treated R6/2 mice: p>0.999
[2]; Test Day 7, 10 mg/kg p.o.
  Cued 2-CST Acquisition, % of Mice Reaching Criterion: p vs Vehicle-treated R6/2 mice: p=0.508
[2]; Test Day 7, 30 mg/kg p.o.
  Cued 2-CST Acquisition, % of Mice Reaching Criterion: p vs Vehicle-treated R6/2 mice: p=0.752
[2]; Test Day 8, 10 mg/kg p.o.
  Cued 2-CST Acquisition, % of Mice Reaching Criterion: p vs Vehicle-treated R6/2 mice: p=0.313
[2]; Test Day 8, 30 mg/kg p.o.
  Cued 2-CST Acquisition, % of Mice Reaching Criterion: p vs Vehicle-treated R6/2 mice: p=0.751
[2]; Test Day 9, 10 mg/kg p.o.
  Cued 2-CST Acquisition, % of Mice Reaching Criterion: p vs Vehicle-treated R6/2 mice: p>0.999
[2]; Test Day 9, 30 mg/kg p.o.
  Cued 2-CST Acquisition, % of Mice Reaching Criterion: p vs Vehicle-treated R6/2 mice: p>0.999
[2]; Test Day 10, 10 mg/kg p.o.
  Cued 2-CST Acquisition, % of Mice Reaching Criterion: p vs Vehicle-treated R6/2 mice: p>0.999
[2]; Test Day 10, 30 mg/kg p.o.
  Cued 2-CST Acquisition, % of Mice Reaching Criterion: p vs Vehicle-treated R6/2 mice: p>0.999
[2]; Test Day 11, 10 mg/kg p.o.
  Cued 2-CST Acquisition, % of Mice Reaching Criterion: p vs Vehicle-treated R6/2 mice: p>0.999
[2]; Test Day 11, 30 mg/kg p.o.
  Cued 2-CST Acquisition, % of Mice Reaching Criterion: p vs Vehicle-treated R6/2 mice: p=0.716
[2]; Test Day 12, 10 mg/kg p.o.
  Cued 2-CST Acquisition, % of Mice Reaching Criterion: p vs Vehicle-treated R6/2 mice: p>0.999
[2]; Test Day 12, 30 mg/kg p.o.
  Cued 2-CST Acquisition, % of Mice Reaching Criterion: p vs Vehicle-treated R6/2 mice: p>0.999
